For this test, the target named is T1, Human TREX1 enzyme (amino acids 1-242) (Homo sapiens, UniProt Q9NSU2).
T1 construct: Human TREX1 enzyme (amino acids 1-242)
T1 sequence (Q9NSU2 1-242): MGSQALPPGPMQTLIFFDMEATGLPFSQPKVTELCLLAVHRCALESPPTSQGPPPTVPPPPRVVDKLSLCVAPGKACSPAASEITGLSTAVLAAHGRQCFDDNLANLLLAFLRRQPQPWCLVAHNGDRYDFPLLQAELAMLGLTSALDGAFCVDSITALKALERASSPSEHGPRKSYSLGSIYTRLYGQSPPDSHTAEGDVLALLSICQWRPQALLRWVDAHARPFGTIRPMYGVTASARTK
Nature of the test: Human TREX1 enzymatic assay with dsDNA native oligonucleotide (Picogreen fluorescence). The format is biochemical. The settings on record: 2 mM dithiothreitol in assay buffer; 50 nM dsDNA oligonucleotide; 30 min preincubation at 25° C.; read-out: TREX1/Human + DTT IC50 AVG. The method in brief: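 Remaining dsDNA quantified by Picogreen fluorescence after EDTA quench, with no-enzyme and DMSO wells as controls. Reactions used 50 nM annealed oligonucleotide for 5–15 min at 25 °C, after a 30 min compound–enzyme preincubation (0.8–0.16 nM TREX1; 2% DMSO; pH 7.7 Tris, 5 mM MgCl2).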

Each structure is given as a SMILES string. pIC50: −log10 of the molar value.

For the molecule `COc1cc(-c2nc3ccccc3n2C2(C)COC2)c(C#N)c(O)c1O` [Example 216, 2,3-dihydroxy-4-methoxy-6-[1-(3-methyloxetan-3-yl)-1H-1,3-benzodiazol-2-yl]benzonitrile], the pIC50 is 4.00 to 5.00.
As for `COc1cc(-c2nc3ccc(N4CCOCC4)cc3n2C2CCOC2)cc(O)c1O` (stereo not shown) [Example 83, 3-methoxy-5-(6-morpholino-1-(tetrahydrofuran-3-yl)-1H-benzo[d]imidazol-2-yl)benzene-1,2-diol], the pIC50 was 4.00 to 5.00.
In the case of `COc1cc(-c2nc3cc(N4CCN(C(=O)c5ccccc5C(=O)O)CC4)ccc3[nH]2)cc(O)c1O` [Example 155, 2-(4-(2-(3,4-dihydroxy-5-methoxyphenyl)-1H-benzo[d]imidazol-5-yl)piperazine-1-carbonyl)benzoic acid], the pIC50 is 4.00 to 5.00.
Consider `CCn1c(-c2cc(O)c(O)c(OC(C)C)c2)nc2cccnc21` [Example 29, 5-(3-ethyl-3H-imidazo[4,5-b]pyridin-2-yl)-3-isopropoxybenzene-1,2-diol], for which the pIC50 was below 4.00.
For `COc1cc(-c2nc3cc(N4CCN(C(=O)c5ccc(C(F)(F)F)cc5)CC4)ccc3[nH]2)cc(O)c1O` [Example 102, (4-(2-(3,4-dihydroxy-5-methoxyphenyl)-1H-benzo[d]imidazol-5-yl)piperazin-1-yl)(4-(trifluoromethyl)phenyl)methanone] the value was below 4.00.
As for `O=C(O)c1ccc(-c2nc3ccccc3n2C2COC2)cc1O` [Example 56, 2-hydroxy-4-(1-(oxetan-3-yl)-1H-benzo[d]imidazol-2-yl)benzoic acid], the figure is below 4.00.
For the molecule `COc1cc(-c2nc3cc(N4CCN(C5CC5)CC4)ccc3[nH]2)cc(O)c1O` [Example 274, 5-(5-(4-cyclopropylpiperazin-1-yl)-1H-benzo[d]imidazol-2-yl)-3-methoxybenzene-1,2-diol], the pIC50 was below 4.00.
With `COc1cc(-c2nc3ccccc3n2C2(C)COC2)c(OC(F)F)c(O)c1O` [Example 217, 3-(difluoromethoxy)-6-methoxy-4-(1-(3-methyloxetan-3-yl)-1H-benzo[d]imidazol-2-yl)benzene-1,2-diol], the pIC50 was 4.00 to 5.00.
For `O=C(O)c1cc(F)c(-c2nc3ccncc3[nH]2)cc1O` [Example 120, 5-fluoro-2-hydroxy-4-(3H-imidazo[4,5-c]pyridin-2-yl)benzoic acid] the value was 4.00 to 5.00; for `COc1cc(-c2nc3cc(N4CCNC(C)(C)C4)ccc3[nH]2)cc(O)c1O` [Example 91, 5-(5-(3,3-dimethylpiperazin-1-yl)-1H-benzo[d]imidazol-2-yl)-3-methoxybenzene-1,2-diol], 4.00 to 5.00; for `COc1cc(-c2nc3nc(N4CCOCC4)ccc3n2C2CCOC2)cc(O)c1O` (stereo not shown) [Example 287, 3-methoxy-5-(5-morpholino-1-(tetrahydrofuran-3-yl)-1H-imidazo[4,5-b]pyridin-2-yl)benzene-1,2-diol], below 4.00.
For the molecule `COc1cc(-c2nc3cc(N4CCC4=O)ccc3n2C2(C)COC2)c(F)c(O)c1O` [Example 272, 1-(2-(2-fluoro-3,4-dihydroxy-5-methoxyphenyl)-1-(3-methyloxetan-3-yl)-1H-benzo[d]imidazol-5-yl)azetidin-2-one], the pIC50 is 6.00 to 7.00.
As to `Oc1cc(-c2nc3ccccc3n2C2CCC2)cc(OC(F)F)c1O` [Example 333, 5-(1-cyclobutyl-1H-benzo[d]imidazol-2-yl)-3-(difluoromethoxy)benzene-1,2-diol], the pIC50 was below 4.00.
Consider `COc1cc(-c2nc3cc(NC(C)=O)ccc3n2C2(C)COC2)c(C)c(O)c1O` [Example 311, N-(2-(3,4-dihydroxy-5-methoxy-2-methylphenyl)-1-(3-methyloxetan-3-yl)-1H-benzo[d]imidazol-5-yl)acetamide], for which the pIC50 is 6.00 to 7.00.
For `COc1cc(-c2nc3cc(N4CC5(CN(CC(F)(F)F)C5)C4)ccc3[nH]2)cc(O)c1O` [Example 122, 3-methoxy-5-(5-(6-(2,2,2-trifluoroethyl)-2,6-diazaspiro[3.3]heptan-2-yl)-1H-benzo[d]imidazol-2-yl)benzene-1,2-diol] the value was 4.00 to 5.00; for `COc1cc(-c2nc3cc(NCc4ccccc4)ccc3n2C2(C)COC2)c(F)c(O)c1O` [Example 222, 4-(5-(benzylamino)-1-(3-methyloxetan-3-yl)-1H-benzo[d]imidazol-2-yl)-3-fluoro-6-methoxybenzene-1,2-diol], at least 7.00.
`COc1cc(-c2nc3ccccc3n2C2COC2)cc(C(=O)O)c1O` [Example 89, 2-hydroxy-3-methoxy-5-(1-(oxetan-3-yl)-1H-benzo[d]imidazol-2-yl)benzoic acid]: the pIC50 was below 4.00.
For the molecule `Oc1cc(-c2nc3ccccc3n2C2CCC2)cc(OC(F)(F)F)c1O` [Example 233, 5-(1-cyclobutyl-1H-benzo[d]imidazol-2-yl)-3-(trifluoromethoxy)benzene-1,2-diol], the pIC50 is below 4.00.
As for `COc1cc(-c2nc3ccc(-c4ncc(F)cn4)cc3n2C2(C)COC2)c(F)c(O)c1O` [Example 270, 3-fluoro-4-(6-(5-fluoropyrimidin-2-yl)-1-(3-methyloxetan-3-yl)-1H-benzo[d]imidazol-2-yl)-6-methoxybenzene-1,2-diol], the pIC50 is at least 7.00.
Consider `COc1cc(-c2nc3ccc(-c4cn[nH]c4)cc3n2C2(C)COC2)c(F)c(O)c1O` [Example 194], for which the pIC50 is at least 7.00.
For `COc1cc(-c2nc3ccc(-c4ccn[nH]4)cc3n2C2(C)COC2)c(F)c(O)c1O` [Example 295, 3-fluoro-6-methoxy-4-(1-(3-methyloxetan-3-yl)-6-(1H-pyrazol-5-yl)-1H-benzo[d]imidazol-2-yl)benzene-1,2-diol], the pIC50 was at least 7.00.
Turning to `COc1cc(-c2nc3ccc(-c4nnco4)cc3n2C2(C)COC2)c(F)c(O)c1O` [Example 238, 3-fluoro-6-methoxy-4-[1-(3-methyloxetan-3-yl)-6-(1,3,4-oxadiazol-2-yl)-1H-1,3-benzodiazol-2-yl] benzene-1,2-diol], the pIC50 is at least 7.00.
With `COc1cc(-c2nc3cc(NC(C)=O)ccc3n2C2(C)COC2)c(F)c(O)c1O` [Example 312, N-(2-(2-fluoro-3,4-dihydroxy-5-methoxyphenyl)-1-(3-methyloxetan-3-yl)-1H-benzo[d]imidazol-5-yl)acetamide], the pIC50 is at least 7.00.
For `CCOc1cc(-c2nc3ccccc3n2C2CCC2)cc(O)c1O` [Example 234, 5-(1-cyclobutyl-1H-1,3-benzodiazol-2-yl)-3-ethoxybenzene-1,2-diol] the value was 5.00 to 6.00; for `COc1c(C)c(-c2nc3cc(N4CCC4)ccc3n2C2COC2)c(F)c(O)c1O` [Example 199, 4-[5-(azetidin-1-yl)-1-(oxetan-3-yl)-1H-1,3-benzodiazol-2-yl]-3-fluoro-6-methoxy-5-methylbenzene-1,2-diol], 5.00 to 6.00; for `COc1cc(-c2nc3ccccc3n2C2(C)CC2)c(F)c(O)c1O` [Example 329, 3-fluoro-6-methoxy-4-(1-(1-methylcyclopropyl)-1H-benzo[d]imidazol-2-yl)benzene-1,2-diol], 6.00 to 7.00.
`COc1cc(-c2nc3cc(N4[C@@H]5CC[C@H]4CN(C(=O)c4ccccc4)C5)ccc3[nH]2)cc(O)c1O` [Example 135, ((1R,5S)-8-(2-(3,4-dihydroxy-5-methoxyphenyl)-1H-benzo[d]imidazol-5-yl)-3,8-diazabicyclo[3.2.1]octan-3-yl)(phenyl)methanone]: the pIC50 is 5.00 to 6.00.
Consider `COc1cc(-c2nc3ccc(C(=O)NCC(F)F)cc3n2C2(C)COC2)c(F)c(O)c1O` [Example 251, N-(2,2-difluoroethyl)-2-(2-fluoro-3,4-dihydroxy-5-methoxyphenyl)-1-(3-methyloxetan-3-yl)-1H-1,3-benzodiazole-6-carboxamide], for which the pIC50 was at least 7.00.
As to `COc1cc(-c2nc3ccccc3n2C2COC2)cc(O)c1O` [Example 11, 3-methoxy-5-(1-(oxetan-3-yl)-1H-benzo[d]imidazol-2-yl)benzene-1,2-diol], the pIC50 is 4.00 to 5.00.
Consider `Oc1cc(-c2nc3ccccc3n2C2COC2)c2c(c1O)OCCC2` [Example 163, 5-(1-(oxetan-3-yl)-1H-benzo[d]imidazol-2-yl)chroman-7,8-diol], for which the pIC50 was 6.00 to 7.00.
As for `COc1cc(-c2nc3cc(N4CCN(Cc5ccc6ccccc6c5)CC4)ccc3[nH]2)cc(O)c1O` [Example 82, 3-methoxy-5-(5-(4-(naphthalen-2-ylmethyl)piperazin-1-yl)-1H-benzo[d]imidazol-2-yl)benzene-1,2-diol], the pIC50 was below 4.00.
For the molecule `COc1cc(-c2nc3cc(N4CCN(C(=O)c5ccc6ccccc6c5)CC4)ccc3[nH]2)cc(O)c1O` [Example 81, (4-(2-(3,4-dihydroxy-5-methoxyphenyl)-1H-benzo[d]imidazol-5-yl)piperazin-1-yl)(naphthalen-2-yl)methanone], the pIC50 was below 4.00.
With `COc1cc(-c2nc3c(N4CCOCC4)cncc3[nH]2)cc(O)c1O` [Example 76, 3-methoxy-5-(7-morpholino-3H-imidazo[4,5-c]pyridin-2-yl)benzene-1,2-diol], the pIC50 was 4.00 to 5.00.
As to `COc1cc(-c2nc3ccc(C(=O)NC4CC(F)(F)C4)cc3n2C2(C)COC2)c(F)c(O)c1O` [Example 205, N-(3,3-difluorocyclobutyl)-2-(2-fluoro-3,4-dihydroxy-5-methoxyphenyl)-1-(3-methyloxetan-3-yl)-1H-benzo[d]imidazole-6-carboxamide], the pIC50 is at least 7.00.

These data come from patent publication US20230234943A1, “TREX1 INHIBITORS AND USES THEREOF” (Tempest Therapeutics, Inc., priority 2020, published 2023).
